# Source: US5304113A, “Method of eradicating infectious biological contaminants” (The MCW Research Foundation, Inc., priority 1990, dated 1994)
# Entries after “also recorded” stand apart in the source; their conditions may differ.
# Tests used:
# [1] = comparison dye; cited from earlier work
# [2] = illumination time reduction; details: equimolar concentrations
# Text: An analog of MC 540 which we have labeled MC 540A (see structural formula below) reduces illumination times about 6-fold when used in equimolar concentrations. [drawing 3]
# Merocyanine-mediated photolysis of tumor cells, viruses and protozoa appear to be primarily mediated by singlet oxygen. An additional 2-fold reduction in illumination time can therefore be achieved by performing the photosensitization step in the presence of deuterium oxide (D2 O).
# P. berghei berghei = assay: survival of mice injected with treated P. berghei-infected blood; assay type: in vivo
# Experimental: (§1) Using the rodent malaria species, P. yoelii YM, and P. berghei berghei as model systems, the survival of mice i.v. injected with MC 540-treated and non-treated malarious blood was monitored in vivo. […] All mice receiving untreated malarious blood died rapidly. In a subsequent experiment, serial dilutions of treated (30 minutes of dye/light) or control malarious blood (30% parasitemia) were injected into recipient mice. One hundred percent of the mice receiving 10^4 treated cells survived compared to 0% of the corresponding control group. […] It is conceivable that MC 540 treatment of infected blood enhanced the immune response of the recipient mice.
# In two experiments, all mice receiving P. berghei-infected blood (30% parasitemia), treated for 15-45 minutes with light and MC 540, died as did their control counterparts. However, 10% of the group receiving infected blood treated for 60 minutes with light and dye survived for the duration of the experiment (90 days).
# [3] = tested on: normal pluripotent hematopoietic stem cells; assay: sparing of normal pluripotent hematopoietic stem cells (rescue of lethally irradiated syngeneic hosts); assay type: in vivo, mouse; details: photosensitization treatment
# Experimental: (§2) When cultured F4-6 erythroleukemia cells, spleen or marrow cells from diseased animals, cell-free extracts of cultured cells, spleen cells, or marrow cells, or cell-free supernatants of F-6 cultures were injected into healthy B6D2F1 mice, the spleen weights increased from 70 mg to about 2 g within two weeks. The animals became polycythemic and, eventually, died. […] Normal pluripotent hematopoietic stem cells (as determined by the ability of photosensitized marrow cells to rescue lethally irradiated syngeneic hosts) were spared by the photosensitization treatment.
# mature blood cells = assay: toxicity of photosensitization to mature blood cells; assay type: cell-based, mouse; details: photosensitization treatment
# Text: 4) The same treatment protocol was much less toxic to mature blood cells and normal pluripotent hematopoietic stem cells in the mouse.
# (§3) The simultaneous exposure to MC 540 and visible light also appears to kill protozoan-infected red blood cells very rapidly, but normal pluripotent hematopoietic stem cells and mature blood cells very slowly. This differential sensitivity to MC 540-mediated photolysis may be useful in purging blood and red blood cells of cell-free protozoa and protozoan-infected cells thus making the blood supply safer for use.
# [4] = tested on: herpes simplex virus type 1 (HSV-1); assay: limiting dilution plaque forming assay on Vero cells (Herpes simplex 1 inactivation); assay type: cell-based, human
# Text: (§4) The amount of virus that could be sedimented by centrifugation was reduced 5-fold after treatment with MC 540 and light. The remaining 80% of the virus were probably lysed. The small fraction that was sedimented was visibly stained by MC 540. It is conceivable that the sedimented virus fraction, although not lysed, had sustained enough photodynamic damages to make it noninfectious. For example, when the virus is Herpes simplex 1 the order of magnitude reduction is as high as 45 times.
# (§5) Experiments with human herpes simplex virus type 1 (HSV-1), and human T-cell leukemia virus type I (HTLV-I) produced similar results. […] A limiting dilution plaque forming assay on Vero cells indicated a ≥5 log reduction (limit of detection) of the virus titer after only 10 min. of illumination. The standard illumination protocol calls for 90 min. of illumination. It is thus conceivable that the titer can be reduced by ≥45 log. Infectivity assays for HTLV-I have, unfortunately, not yet been developed. We therefore used reverse transcriptase activity as an indicator of virus destruction. Photosensitized and untreated aliquots of the same virus suspension were pelleted on a sucrose cushion. The pellet of the treated aliquot was about 5 times smaller and visibly red. Its reverse transcriptase content was reduced by more than 80% (Table 1). The balance of the enzyme activity was recovered in the supernatant. More than 80% of the original virus mass was apparently damaged so extensively (virtually "dissolved") that it was no longer pelletable by a two hour spin at 100,000×g. If the photosensitization of enveloped viruses bears any resemblance to the photosensitization of cells, it is reasonable to speculate that the pelletable material was also photodamaged and perhaps no longer infective.
# [5] = tested on: Friend erythroleukemia virus complex; assay: Friend virus titer / inactivation by MC 540-mediated photosensitization; assay type: cell-based
# Experimental: The ability of MC 540 to react with enveloped (i.e. lipid-containing) viruses was tested with the Friend erythroleukemia virus complex, the human T cell leukemia virus, HTLV-I and Herpes simplex 1. Friend virus was obtained from cell-free supernatants of cultured erythroleukemia cells or as a cell-free extract from infected animals. Simultaneous exposure to MC 540 (15 ug/ml) and light (40 J/cm^2) reduced the virus titer by ≥4 logs regardless of the origin of the virus preparation.
# [6] = tested on: virus-infected spleen cells, bone marrow cells, and cultured Friend erythroleukemia cells; assay: inactivation of Friend virus-infected / transformed cells by photosensitization; assay type: cell-based
# P. yoelii YM = assay: survival of mice injected with treated P. yoelii-infected blood; assay type: in vivo
# Experimental: as §1
# Friend virus = Friend virus disease in mice injected with photosensitized preparations; assay type: in vivo, B6D2F1 mice
# Experimental: as §2
# [7] = tested on: protozoan-infected red blood cells; assay: killing of protozoan-infected red blood cells; assay type: cell-based; details: simultaneous exposure to MC 540 and visible light
# Text: as §3
# [8] = Acute systemic toxicity in mice (intravenous); assay type: in vivo, mouse (BAF1)
# Experimental: The acute systemic toxicity of MC 540 was determined by injecting groups of 10 BAF1 mice intravenously with graded doses of MC 540. Survival data were plotted on a log probit scale and fitted with a least square regression line to determine LD10 and LD50 (Table 2).
# HTLV-I infected cells = assay: inactivation of HTLV-I infected cells; assay type: cell-based; details: MC 540-mediated photosensitization
# [9] = tested on: human T-cell leukemia virus type I (HTLV-I) reverse transcriptase; assay: HTLV-I inactivation: pelletable virus and reverse transcriptase activity; assay type: biochemical
# Text: as §4, §5
# [10] = MC 540-mediated photosensitization
# [11] = preparations photosensitized and exposed to light prior to injection
smiles,measurement,setting,value
O=C1OC2(c3ccc(O)cc3Oc3cc(O)ccc32)c2ccccc21 [fluorescein],"LD50 (mouse), for comparison",[1],300 mg/kg
CCCCN1C(=O)C(=CC=CC=C2Oc3c(ccc4ccccc34)N2CCCS(=O)(=O)O)C(=O)N(CCCC)C1=S [MC 540A],reduction of illumination time versus MC 540,[2],about 6 fold
CCCCN1C(=O)C(=CC=CC=C2Oc3ccccc3N2CCCS(=O)(=O)O)C(=O)N(CCCC)C1=S [MC 540],outcome of mice receiving treated P. berghei-infected blood,"P. berghei berghei; 15-45 minutes light and MC 540, 30% parasitemia, two experiments",died
same,survival of mice receiving treated P. berghei-infected blood,"P. berghei berghei; 60 minutes light and dye, 90 days",10%
same,effect on normal pluripotent hematopoietic stem cells (in words),[3],very slowly
same,effect on mature blood cells (in words),mature blood cells,very slowly
same,virus titer reduction (HSV-1),"[4]; 10 min. of illumination, limit of detection",≥ 5 log
same,"virus titer reduction (HSV-1), conceivable for standard protocol","[4]; 90 min. of illumination, extrapolated",≥ 45 log
same,inactivation of Herpes simplex (in words),[4]; [10],rapidly inactivated; also recorded: extremely susceptible
same,inactivation of Friend virus suspensions (in words),[5]; [10],rapidly inactivated
same,log reduction at 15 µg/mL,"[5]; light or radiation study, read-out: virus titer reduction (Friend virus)",≥ 4
same,inactivation of Friend virus-transformed / infected cells (in words),[6]; [10],rapidly inactivated
same,rate of inactivation of virus-infected cells versus cell-free virus,[6]; simultaneous MC 540 (15 ug/ml) and light (40 J/cm^2),inactivated at about the same rate as cell-free virus preparations
same,survival of mice receiving 10^4 treated cells,"P. yoelii YM; 30 minutes dye/light, 30% parasitemia, control 0%",One hundred
same,survival of recipient population (P. yoelii),"P. yoelii YM; 60 minutes dye/light, 40%-70% parasitemia",70%-100
same,protection of recipient mice (P. yoelii),"P. yoelii YM; 90 minutes dye and light, 40%-70% parasitemia",total protection
same,protection despite exceedingly high parasitemias (P. yoelii),P. yoelii YM; all stages of development,protection by MC 540 treatment was still obtained
same,"protection of recipient mice (P. yoelii), shorter illumination",P. yoelii YM; shorter than 60 minutes illumination,partial protection
same,course of disease in surviving mice,"P. yoelii YM; some of the surviving mice, both treatments","initially showed severe symptoms of malaria (e.g. splenomegaly, anemia) but later recovered"
same,inactivation of free and intracellular Friend virus and Friend virus-infected cells,Friend virus; MC 540-mediated photolysis,"inactivates free Friend virus, intracellular Friend virus, and Friend virus-infected cells"
same,effect of virus preparations exposed to dye or light alone,Friend virus; dye alone or light alone,"caused splenomegaly, polycythemia,and death"
same,hematocrits,Friend virus; [11],remained normal
same,spleen weights,Friend virus; [11],remained normal
same,survival,Friend virus; [11],the animals survived
same,killing of protozoan-infected red blood cells (in words),[7],very rapidly
same,LD50,"[8]; in vivo, mouse, intravenous, log probit fit",84 mg/kg
same,LD10 (mouse),"[8]; intravenous, log probit fit",55 mg/kg
same,acute systemic toxicity (in words),"[8]; mouse, in vivo",very low
same,acute toxicity compared with fluorescent dyes used for angiography of the retina,"[8]; mouse, in vivo, iv",not more toxic than the fluorescent dyes that are commonly used for the angiography of the retina
same,selectivity ratio,"[8]; mouse, in vivo, iv, read-out: LD10 relative to amount injected with mouse bone marrow graft",> 100000
same,probable cause of death after high doses (necropsy),"[8]; mouse, intravenous, high doses",formation of large emboli of precipitated dye in major blood vessel
same,amount injected with photosensitized marrow graft,"[8]; mouse, for comparison with LD10",0.0004 mg/kg
same,inactivation of HTLV-I infected cells (in words),HTLV-I infected cells,rapidly inactivated
same,"HTLV-I, Reverse Transcriptase activity","[9]; MC 540, light 90 min","37,848 cpm"
same,"HTLV-I, Reverse Transcriptase activity","[9]; MC 540, no light","208,548 cpm"
same,inactivation of HTLV-I (in words),[9]; [10],rapidly inactivated; also recorded: susceptible to MC 540-mediated photosensitization
same,reduction of amount of virus sedimented by centrifugation (HTLV-I),[9]; MC 540 and light,5 fold
same,virus probably lysed (HTLV-I),[9]; MC 540 and light,80%
same,reduction of reverse transcriptase content of pellet (HTLV-I),[9]; photosensitized vs untreated aliquot,more than 80%
same,pellet size reduction of treated aliquot (HTLV-I),"[9]; photosensitized vs untreated aliquot, sucrose cushion",about 5 times smaller
same,original virus mass no longer pelletable (HTLV-I),"[9]; two hour spin at 100,000×g",more than 80%
